# Results as given in ChEMBL document CHEMBL1201862, “PubChem BioAssay data set” (2004).
#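 Method: 48-hour compound exposure of cells in 96-well plates, five concentrations, linear interpolation of endpoints. GI50: concentration for 50% inhibition of growth.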 Activity calls are given as the source filed them. No stated cut-off is given here; in the data, active = GI50 up to about 1.1 µM and inactive = higher.
# Legend:
# Experiment in all cases: NCI-60 cell line screen, 48 h
# HCT-15 = system: HCT-15
# Hs-578T = system: Hs-578T
# UO-31 = system: UO-31
# RXF 393 = system: RXF 393
# SF-268 = system: SF-268
# MOLT-4 = system: MOLT-4
# ACHN = system: ACHN
# EKVX = system: EKVX
# 786-0 = system: 786-0
# U-251 = system: U-251
# HCT-116 = system: HCT-116
# DU-145 = system: DU-145
# A549 = system: A549
# HCC 2998 = system: HCC 2998
# HL-60 = system: HL-60
# BT-549 = system: BT-549
# MCF7 = system: MCF7
# SK-MEL-5 = system: SK-MEL-5
# NCI-H460 = system: NCI-H460
# SNB-75 = system: SNB-75
Structure (SMILES),GI50 (HCT-15) [µM],GI50 (Hs-578T),GI50 (UO-31),GI50 (RXF 393),GI50 (SF-268),GI50 (MOLT-4),GI50 (ACHN),GI50 (EKVX),GI50 (786-0),GI50 (U-251),GI50 (HCT-116),GI50 (DU-145),GI50 (A549),GI50 (HCC 2998),GI50 (HL-60),GI50 (BT-549),GI50 (MCF7),GI50 (SK-MEL-5),GI50 (NCI-H460),GI50 (SNB-75)
COC(=O)/C=C/CC(=O)NS(C)(=O)=O,> 10,> 10 µM (inactive),> 10 µM (inactive),> 10 µM (inactive),> 10 µM (inactive),> 10 µM (inactive),> 10 µM (inactive),> 10 µM (inactive),> 10 µM (inactive),> 10 µM (inactive),> 10 µM (inactive),> 10 µM (inactive),> 10 µM (inactive),> 10 µM (inactive),> 10 µM (inactive),> 10 µM (inactive),> 10 µM (inactive),> 10 µM (inactive),> 10 µM (inactive),–
O=c1cc(-c2ccccc2)nc(-n2[nH]c3c(c2=O)CCCC3)[nH]1,1.7,23.4 µM (inactive),7.29 µM (inactive),0.656 µM (active),2.7 µM (inactive),2.9 µM (inactive),3.66 µM (inactive),4.94 µM (inactive),1.91 µM (inactive),2.55 µM (inactive),2.7 µM (inactive),1.57 µM (inactive),4.35 µM (inactive),–,2.73 µM (inactive),9.38 µM (inactive),3.37 µM (inactive),4.78 µM (inactive),1.08 µM (active),3.13 µM (inactive)
CC1OC(OC2C(O[C@H]3CC[C@@]4(C)C(=CC[C@H]5[C@@H]6C[C@@H]7O[C@]8(CC[C@H](C)CN8)[C@@H](C)[C@@H]7[C@@]6(C)CC[C@@H]54)C3)OC(CO)C(O)C2OC2OC(CO)C(O)C(O)C2O)C(O)C(O)C1O (stereo not given in full),16.7,14.7 µM (inactive),19.1 µM (inactive),15.8 µM (inactive),16.6 µM (inactive),18.9 µM (inactive),17.6 µM (inactive),16.5 µM (inactive),24 µM (inactive),37.2 µM (inactive),20.1 µM (inactive),19.4 µM (inactive),18.1 µM (inactive),18.3 µM (inactive),15.5 µM (inactive),17 µM (inactive),16.9 µM (inactive),19.2 µM (inactive),17.8 µM (inactive),14.5 µM (inactive)
CC(C(=O)O)C(C)(O)C(=O)O (stereo not given),> 100,> 100 µM (inactive),> 100 µM (inactive),> 100 µM (inactive),> 100 µM (inactive),> 100 µM (inactive),–,> 100 µM (inactive),> 100 µM (inactive),> 100 µM (inactive),> 100 µM (inactive),> 100 µM (inactive),> 100 µM (inactive),> 100 µM (inactive),> 100 µM (inactive),> 100 µM (inactive),> 100 µM (inactive),> 100 µM (inactive),> 100 µM (inactive),> 100 µM (inactive)
CC(=O)OC12c3ccccc3C(c3ccccc31)C1C(=O)N(N=C(C)C)C(=O)C12 (stereo not given),> 100,> 100 µM (inactive),> 100 µM (inactive),> 100 µM (inactive),> 100 µM (inactive),> 100 µM (inactive),–,> 100 µM (inactive),> 100 µM (inactive),> 100 µM (inactive),> 100 µM (inactive),> 100 µM (inactive),> 100 µM (inactive),> 100 µM (inactive),> 100 µM (inactive),> 100 µM (inactive),> 100 µM (inactive),> 100 µM (inactive),–,51.9 µM (inactive)
COC(=O)c1c(C)cccc1C1CN=NC12Cc1cccc(C)c1C2=O (stereo not given),34,> 100 µM (inactive),14.4 µM (inactive),30.5 µM (inactive),83.4 µM (inactive),–,27.4 µM (inactive),32 µM (inactive),39.1 µM (inactive),39.4 µM (inactive),28 µM (inactive),47.3 µM (inactive),18.9 µM (inactive),38 µM (inactive),11.7 µM (inactive),23.6 µM (inactive),30.8 µM (inactive),17.8 µM (inactive),12.6 µM (inactive),38.4 µM (inactive)
Cc1ccc(S(=O)(=O)N2CCN(CCN(C)CCN3CCN(S(=O)(=O)c4ccc(C)cc4)CC3)CC2)cc1,17.6,22.3 µM (inactive),13.9 µM (inactive),14.3 µM (inactive),17.2 µM (inactive),14.1 µM (inactive),17.9 µM (inactive),22.5 µM (inactive),19.4 µM (inactive),17.3 µM (inactive),17 µM (inactive),16 µM (inactive),23.3 µM (inactive),15.9 µM (inactive),16.1 µM (inactive),16.9 µM (inactive),17.7 µM (inactive),16.3 µM (inactive),17.5 µM (inactive),–
O=C(C/N=C(\CN(c1ccccc1)c1ccccc1)Oc1c([N+](=O)[O-])cc([N+](=O)[O-])cc1[N+](=O)[O-])N1CCNCC1,> 100,25.4 µM (inactive),–,69.8 µM (inactive),> 100 µM (inactive),> 100 µM (inactive),> 100 µM (inactive),> 100 µM (inactive),> 100 µM (inactive),> 100 µM (inactive),> 100 µM (inactive),> 100 µM (inactive),> 100 µM (inactive),> 100 µM (inactive),> 100 µM (inactive),> 100 µM (inactive),> 100 µM (inactive),28.7 µM (inactive),> 100 µM (inactive),10.5 µM (inactive)
Cc1ccc(N2CCc3c(C)c(C#N)c4nc5ccccc5n4c32)cc1,> 100,16 µM (inactive),> 100 µM (inactive),32.1 µM (inactive),31.8 µM (inactive),–,> 100 µM (inactive),–,12.1 µM (inactive),38.8 µM (inactive),> 100 µM (inactive),> 100 µM (inactive),> 100 µM (inactive),> 100 µM (inactive),> 100 µM (inactive),> 100 µM (inactive),> 100 µM (inactive),> 100 µM (inactive),99.1 µM (inactive),22.7 µM (inactive)
CC[C@@H]1CC[C@@H]2[C@H](CC[C@]3(C)[C@@H](OS(=O)(=O)c4ccc(C)cc4)CC[C@@H]23)[C@H]1COS(=O)(=O)c1ccc(C)cc1,> 100,> 100 µM (inactive),51.4 µM (inactive),> 100 µM (inactive),> 100 µM (inactive),> 100 µM (inactive),> 100 µM (inactive),> 100 µM (inactive),> 100 µM (inactive),> 100 µM (inactive),> 100 µM (inactive),> 100 µM (inactive),> 100 µM (inactive),> 100 µM (inactive),> 100 µM (inactive),> 100 µM (inactive),> 100 µM (inactive),> 100 µM (inactive),> 100 µM (inactive),–
COc1cc(S(=O)(=O)Nc2nc(-c3ccc(N)cc3)cs2)ccc1Cl,63.8,91.4 µM (inactive),85.7 µM (inactive),38.1 µM (inactive),75.7 µM (inactive),53.7 µM (inactive),66.4 µM (inactive),42.7 µM (inactive),> 100 µM (inactive),63 µM (inactive),65.2 µM (inactive),> 100 µM (inactive),51.5 µM (inactive),–,45.7 µM (inactive),51.9 µM (inactive),36.8 µM (inactive),38.6 µM (inactive),84.9 µM (inactive),> 100 µM (inactive)
CC(C)(O)CCC(O)C(C)(O)C1CCC2(O)C3=CC(=O)C4(O)CC(O)C(O)CC4(C)C3CCC12C.CC(C)(O)CCC(O)C(C)(O)C1CCC2(O)C3=CC(=O)C4CC(O)C(O)CC4(C)C3CCC12C (stereo not given),> 100,> 100 µM (inactive),> 100 µM (inactive),> 100 µM (inactive),> 100 µM (inactive),> 100 µM (inactive),> 100 µM (inactive),> 100 µM (inactive),> 100 µM (inactive),> 100 µM (inactive),> 100 µM (inactive),> 100 µM (inactive),> 100 µM (inactive),–,> 100 µM (inactive),> 100 µM (inactive),86.7 µM (inactive),> 100 µM (inactive),> 100 µM (inactive),> 100 µM (inactive)
COc1ccc(NC(=O)CC(=O)n2nc(C)c(/N=N/c3ccc(C)c(C)c3)c2C)cc1,–,25.2 µM (inactive),24.5 µM (inactive),32.4 µM (inactive),33.8 µM (inactive),78.3 µM (inactive),82.6 µM (inactive),15.1 µM (inactive),41.6 µM (inactive),23 µM (inactive),> 100 µM (inactive),> 100 µM (inactive),> 100 µM (inactive),> 100 µM (inactive),48.3 µM (inactive),> 100 µM (inactive),> 100 µM (inactive),> 100 µM (inactive),> 100 µM (inactive),39.2 µM (inactive)
O=C(O)CCNc1[nH]cnc2ncnc1-2,> 100,> 100 µM (inactive),> 100 µM (inactive),> 100 µM (inactive),> 100 µM (inactive),–,> 100 µM (inactive),> 100 µM (inactive),> 100 µM (inactive),> 100 µM (inactive),> 100 µM (inactive),> 100 µM (inactive),> 100 µM (inactive),> 100 µM (inactive),> 100 µM (inactive),> 100 µM (inactive),> 100 µM (inactive),> 100 µM (inactive),> 100 µM (inactive),> 100 µM (inactive)
